According to patent publication US6737383B1, “Herbicidal oxadiazolidines” (priority 1999, dated 2004):

What was measured:
bedstraw = test: Test B pre/postemergence bedstraw; assay type: in vivo, Galium aparine
Method in brief: (§1)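 Herbicidal effect was estimated by eye on a ten-point control scale after plants spent twelve to sixteen days in a greenhouse following soil or foliar treatment. Foliar sprays targeted plants at one to four leaves; all doses were formulated in a non-phytotoxic solvent with surfactant.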

blackgrass = test: Test B pre/postemergence blackgrass; assay type: in vivo, Alopecurus myosuroides
Method in brief: as §1

surinam grass = test: Test B pre/postemergence surinam grass; assay type: in vivo, Brachiaria decumbens
Method in brief: as §1

corn = test: Test B pre/postemergence corn; assay type: in vivo, Zea mays
Method in brief: as §1

crabgrass = test: Test B pre/postemergence crabgrass; assay type: in vivo, Digitaria sanguinalis
Method in brief: as §1

pigweed = test: Test B pre/postemergence pigweed; assay type: in vivo, Amaranthus retroflexus
Method in brief: as §1

rape = test: Test B pre/postemergence rape; assay type: in vivo, Brassica napus
Method in brief: as §1

soybean = test: Test B pre/postemergence soybean; assay type: in vivo, Glycine max
Method in brief: as §1

sugar beet = test: Test B pre/postemergence sugar beet; assay type: in vivo, Beta vulgaris
Method in brief: as §1

velvetleaf = test: Test B pre/postemergence velvetleaf; assay type: in vivo, Abutilon theophrasti
Method in brief: as §1

wheat = test: Test B pre/postemergence wheat; assay type: in vivo, Triticum aestivum
Method in brief: as §1

wild oat = test: Test B pre/postemergence wild oat; assay type: in vivo, Avena fatua
Method in brief: as §1

purple nutsedge = test: Test B pre/postemergence purple nutsedge; assay type: in vivo, Cyperus rotundus; conditions: Preemergence
Method in brief: as §1

rice = test: Test B flood test rice; assay type: in vivo, Oryza sativa
Method in brief: (§2)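 Flood test on plants grown to the 2-leaf stage; treated plants kept in greenhouse twelve to sixteen days, then visually rated against controls on a 0 (no effect) to 10 (complete control) scale.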

smallflower flatsedge = test: Test B flood test smallflower flatsedge; assay type: in vivo, Cyperus difformis
Method in brief: as §2

duck salad = test: Test B flood test duck salad; assay type: in vivo, Heteranthera limosa
Method in brief: as §2

[1] = Postemergence, Rate 250 g/ha, scale 0 to 10, 0 no effect, 10 complete control
[2] = Postemergence, Rate 1000 g/ha, scale 0 to 10 (0 no effect, 10 complete control)
[3] = Preemergence, Rate 125 g/ha, scale 0 to 10 (0 no effect, 10 complete control)
[4] = Preemergence, Rate 250 g/ha, scale of 0 to 10 where 0 is no effect and 10 is complete control
[5] = Preemergence, Rate 500 g/ha, scale 0 (no effect) to 10 (complete control)
[6] = Rate 125 g/ha, Postemergence, scale 0 to 10, 0 no effect, 10 complete control
[7] = Rate 500 g/ha, Postemergence, 0 to 10 scale (0 no effect, 10 complete control)
[8] = Rate 1000 g/ha, Preemergence, scale 0 to 10 (0 no effect, 10 complete control)
[9] = Rate 125 g/ha, Postemergence section (flood test species), scale 0 to 10, 0 no effect, 10 complete control
[10] = Rate 500 g/ha, Postemergence section of Table B, 0 to 10 scale (0 no effect, 10 complete control)
[11] = flood test, listed under Postemergence, Rate 250 g/ha, scale 0 to 10, 0 no effect, 10 complete control

## CC(C)N(C(=O)n1oc(=O)n(-c2ccccc2Cl)c1=O)c1ccc(F)cc1 [Compound 8]
bedstraw; [1]
  Bedstraw plant response rating: 2
bedstraw; [2]
  Bedstraw plant response rating: 3
bedstraw; [3]
  Plant response rating, Bedstraw: 0
bedstraw; [4]
  Plant response rating, Bedstraw: 0
bedstraw; [5]
  Bedstraw plant response rating: 0
bedstraw; [6]
  Bedstraw plant response rating: 2
bedstraw; [7]
  Bedstraw plant response rating: 3
bedstraw; [8]
  Plant response rating, Bedstraw: 0
blackgrass; [1]
  Blackgrass plant response rating: 2
blackgrass; [2]
  Blackgrass plant response rating: 5
blackgrass; [3]
  Plant response rating, Blackgrass: 0
blackgrass; [4]
  Plant response rating, Blackgrass: 0
blackgrass; [5]
  Blackgrass plant response rating: 0
blackgrass; [6]
  Blackgrass plant response rating: 0
blackgrass; [7]
  Blackgrass plant response rating: 2
blackgrass; [8]
  Plant response rating, Blackgrass: 4
Surinam grass; [1]
  B. signalgrass plant response rating: 0
Surinam grass; [2]
  B. signalgrass plant response rating: 3
Surinam grass; [3]
  Plant response rating, B. signalgrass: 0
Surinam grass; [4]
  Plant response rating, B. signalgrass: 4
Surinam grass; [5]
  B. signalgrass plant response rating: 5
Surinam grass; [6]
  B. signalgrass plant response rating: 0
Surinam grass; [7]
  B. signalgrass plant response rating: 0
Surinam grass; [8]
  Plant response rating, B. signalgrass: 6
corn; [1]
  Corn plant response rating: 0
corn; [2]
  Corn plant response rating: 3
corn; [3]
  Plant response rating, Corn: 0
corn; [4]
  Plant response rating, Corn: 0
corn; [5]
  Corn plant response rating: 0
corn; [6]
  Corn plant response rating: 0
corn; [7]
  Corn plant response rating: 0
corn; [8]
  Plant response rating, Corn: 3
crabgrass; [1]
  Crabgrass plant response rating: 0
crabgrass; [2]
  Crabgrass plant response rating: 6
crabgrass; [5]
  Crabgrass plant response rating: 6
crabgrass; [6]
  Crabgrass plant response rating: 0
crabgrass; [7]
  Crabgrass plant response rating: 0
crabgrass; [8]
  Plant response rating, Crabgrass: 9
pigweed; [1]
  Redroot pigweed plant response rating: 0
pigweed; [2]
  Redroot pigweed plant response rating: 5
pigweed; [3]
  Plant response rating, Redroot pigweed: 4
pigweed; [4]
  Plant response rating, Redroot pigweed: 5
pigweed; [5]
  Redroot pigweed plant response rating: 5
pigweed; [6]
  Redroot pigweed plant response rating: 0
pigweed; [7]
  Redroot pigweed plant response rating: 0
pigweed; [8]
  Plant response rating, Redroot pigweed: 7
rape; [1]
  Rape plant response rating: 0
rape; [2]
  Rape plant response rating: 0
rape; [3]
  Plant response rating, Rape: 0
rape; [4]
  Plant response rating, Rape: 0
rape; [5]
  Rape plant response rating: 0
rape; [6]
  Rape plant response rating: 0
rape; [7]
  Rape plant response rating: 0
rape; [8]
  Plant response rating, Rape: 0
soybean; [1]
  Soybean plant response rating: 4
soybean; [2]
  Soybean plant response rating: 5
soybean; [3]
  Plant response rating, Soybean: 0
soybean; [4]
  Plant response rating, Soybean: 0
soybean; [5]
  Soybean plant response rating: 0
soybean; [6]
  Soybean plant response rating: 3
soybean; [8]
  Plant response rating, Soybean: 0
Sugar beet; [1]
  Sugarbeets plant response rating: 0
Sugar beet; [2]
  Sugarbeets plant response rating: 2
Sugar beet; [3]
  Plant response rating, Sugarbeets: 0
Sugar beet; [4]
  Plant response rating, Sugarbeets: 0
Sugar beet; [5]
  Sugarbeets plant response rating: 0
Sugar beet; [6]
  Sugarbeets plant response rating: 0
Sugar beet; [8]
  Plant response rating, Sugarbeets: 0
velvetleaf; [1]
  Velvetleaf plant response rating: 0
velvetleaf; [2]
  Velvetleaf plant response rating: 1
velvetleaf; [3]
  Plant response rating, Velvetleaf: 0
velvetleaf; [5]
  Velvetleaf plant response rating: 0
velvetleaf; [6]
  Velvetleaf plant response rating: 0
velvetleaf; [8]
  Plant response rating, Velvetleaf: 4
wheat; [1]
  Wheat plant response rating: 0
wheat; [2]
  Wheat plant response rating: 3
wheat; [3]
  Plant response rating, Wheat: 0
wheat; [4]
  Plant response rating, Wheat: 0
wheat; [5]
  Wheat plant response rating: 0
wheat; [6]
  Wheat plant response rating: 0
wheat; [8]
  Plant response rating, Wheat: 0
Wild oat; [1]
  Wild oats plant response rating: 0
Wild oat; [2]
  Wild oats plant response rating: 3
Wild oat; [3]
  Plant response rating, Wild oats: 0
Wild oat; [4]
  Plant response rating, Wild oats: 0
Wild oat; [5]
  Wild oats plant response rating: 2
Wild oat; [6]
  Wild oats plant response rating: 0
Wild oat; [8]
  Plant response rating, Wild oats: 3
Purple nutsedge; Rate 125 g/ha, scale 0 to 10 (0 no effect, 10 complete control)
  Plant response rating, Nutsedge: 0
Purple nutsedge; Rate 250 g/ha, scale of 0 to 10 where 0 is no effect and 10 is complete control
  Plant response rating, Nutsedge: 0
Purple nutsedge; Rate 500 g/ha, scale 0 (no effect) to 10 (complete control)
  Nutsedge plant response rating: 0
Purple nutsedge; Rate 1000 g/ha, scale 0 to 10 (0 no effect, 10 complete control)
  Plant response rating, Nutsedge: 0
rice; [2]
  Rice plant response rating: 0
rice; [9]
  Rice plant response rating: 0
rice; [10]
  Rice plant response rating: 0
rice; [11]
  Rice plant response rating: 0
Smallflower flatsedge; [2]
  S. Flatsedge plant response rating: 0
Smallflower flatsedge; [9]
  S. Flatsedge plant response rating: 0
Smallflower flatsedge; [11]
  S. Flatsedge plant response rating: 0
Duck salad; [2]
  Ducksalad plant response rating: 0
Duck salad; [9]
  Ducksalad plant response rating: 0
Duck salad; [10]
  Ducksalad plant response rating: 0
Duck salad; [11]
  Ducksalad plant response rating: 0
